{"source": "patent US20100160454A1", "about": "“ANTIMICROBIAL AGENTS, COMPOSITIONS AND PRODUCTS CONTAINING THE SAME, AND METHODS OF USING THE COMPOSITIONS AND PRODUCTS” (Eastman Chemical Company, priority 2008, published 2010)", "experiment_in_all_cases": "Microbiological challenge testing in BPW broth, graded subculture counts", "format_in_all_cases": "cell-based", "key": {"Aeromonas sp. Wild type": {"tested_on": "Aeromonas sp. Wild type", "in_short": "(§1)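 Serial 1:10 dilutions were made in pH 7.2 phosphate buffer and spread-plated onto PCA, and colonies were counted after 48 h or more at 35 °C. In the challenge, BPW–dextrose tubes containing the test material received inoculum at 10^5–10^6 CFU/mL at time zero. Controls without test material served as reference.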"}, "[1]": {"tested_on": "Burkholderia cepacia Wild type", "settings": "B. cepacia", "in_short": "as §1"}, "[2]": {"tested_on": "Escherichia coli ATCC 25922", "settings": "E. Coli", "in_short": "as §1"}, "[3]": {"tested_on": "Pseudomonas aeruginosa Wild type", "settings": "P. aeruginosa", "in_short": "as §1"}}}
{"compound": "OCC1CCCC(CO)C1", "note": "(stereo not drawn) [1,3-CHDM, 1,3-cyclohexanedimethanol]", "values": [{"measurement": "Aeromonas sp growth grade, 3 day", "setting": "Aeromonas sp. Wild type; 0.5% weight/volume", "value": "5 (More than 10,000 colonies estimated (thus more than 100,000 CFU/mL))"}, {"measurement": "Aeromonas sp growth grade, 14 day", "setting": "Aeromonas sp. Wild type; 0.5% weight/volume", "value": "4 (1000 to 10,000 colonies countable (thus 10,000 CFU/mL to 100,000 CFU/mL))"}, {"measurement": "Aeromonas sp growth grade, 30 day", "setting": "Aeromonas sp. Wild type; 0.5% weight/volume", "value": "4 (1000 to 10,000 colonies countable (thus 10,000 CFU/mL to 100,000 CFU/mL))"}, {"measurement": "Aeromonas sp growth grade, 3 day", "setting": "Aeromonas sp. Wild type; 1.25% weight/volume", "value": "4 (1000 to 10,000 colonies countable (thus 10,000 CFU/mL to 100,000 CFU/mL))"}, {"measurement": "Aeromonas sp growth grade, 14 day", "setting": "Aeromonas sp. Wild type; 1.25% weight/volume", "value": "4 (1000 to 10,000 colonies countable (thus 10,000 CFU/mL to 100,000 CFU/mL))"}, {"measurement": "Aeromonas sp growth grade, 30 day", "setting": "Aeromonas sp. Wild type; 1.25% weight/volume", "value": "4 (1000 to 10,000 colonies countable (thus 10,000 CFU/mL to 100,000 CFU/mL))"}, {"measurement": "Aeromonas sp growth grade, 3 day", "setting": "Aeromonas sp. Wild type; 2.5% weight/volume", "value": "4 (1000 to 10,000 colonies countable (thus 10,000 CFU/mL to 100,000 CFU/mL))"}, {"measurement": "Aeromonas sp growth grade, 14 day", "setting": "Aeromonas sp. Wild type; 2.5% weight/volume", "value": "4 (1000 to 10,000 colonies countable (thus 10,000 CFU/mL to 100,000 CFU/mL))"}, {"measurement": "Aeromonas sp growth grade, 30 day", "setting": "Aeromonas sp. Wild type; 2.5% weight/volume", "value": "4 (1000 to 10,000 colonies countable (thus 10,000 CFU/mL to 100,000 CFU/mL))"}, {"measurement": "Aeromonas sp growth grade, 3 day", "setting": "Aeromonas sp. Wild type; 5.0% weight/volume", "value": "4 (1000 to 10,000 colonies countable (thus 10,000 CFU/mL to 100,000 CFU/mL))"}, {"measurement": "Aeromonas sp growth grade, 14 day", "setting": "Aeromonas sp. Wild type; 5.0% weight/volume", "value": "4 (1000 to 10,000 colonies countable (thus 10,000 CFU/mL to 100,000 CFU/mL))"}, {"measurement": "Aeromonas sp growth grade, 30 day", "setting": "Aeromonas sp. Wild type; 5.0% weight/volume", "value": "4 (1000 to 10,000 colonies countable (thus 10,000 CFU/mL to 100,000 CFU/mL))"}, {"measurement": "Grade", "setting": "[1]; 0.5% (wt/vol), 3 day", "value": "5 (More than 10,000 colonies estimated (thus more than 100,000 CFU/mL))"}, {"measurement": "Grade", "setting": "[1]; 0.5% (wt/vol), 14 day", "value": "5 (More than 10,000 colonies estimated (thus more than 100,000 CFU/mL))"}, {"measurement": "Grade", "setting": "[1]; 0.5% (wt/vol), 30 day", "value": "5 (More than 10,000 colonies estimated (thus more than 100,000 CFU/mL))"}, {"measurement": "Grade", "setting": "[1]; 1.25% (wt/vol), 3 day", "value": 4.7}, {"measurement": "Grade", "setting": "[1]; 1.25% (wt/vol), 14 day", "value": 4.7}, {"measurement": "Grade", "setting": "[1]; 1.25% (wt/vol), 30 day", "value": 4.7}, {"measurement": "Grade", "setting": "[1]; 2.5% (wt/vol), 3 day", "value": "4 (1000 to 10,000 colonies countable (thus 10,000 CFU/mL to 100,000 CFU/mL))"}, {"measurement": "Grade", "setting": "[1]; 2.5% (wt/vol), 14 day", "value": "4 (1000 to 10,000 colonies countable (thus 10,000 CFU/mL to 100,000 CFU/mL))"}, {"measurement": "Grade", "setting": "[1]; 2.5% (wt/vol), 30 day", "value": "4 (1000 to 10,000 colonies countable (thus 10,000 CFU/mL to 100,000 CFU/mL))"}, {"measurement": "Grade", "setting": "[1]; 5.0% (wt/vol), 3 day", "value": "3 (100 to 1000 colonies (thus 1000 to 10,000 CFU/mL))"}, {"measurement": "Grade", "setting": "[1]; 5.0% (wt/vol), 14 day", "value": "1 (0 to 51 colonies counted (thus 10 to 510 CFU/mL based on 0.1-mL sample))"}, {"measurement": "Grade", "setting": "[1]; 5.0% (wt/vol), 30 day", "value": 3.3}, {"measurement": "Grade", "setting": "[2]; 0.5% (wt/vol), 3 day", "value": "5 (More than 10,000 colonies estimated (thus more than 100,000 CFU/mL))"}, {"measurement": "Grade", "setting": "[2]; 0.5% (wt/vol), 14 day", "value": "5 (More than 10,000 colonies estimated (thus more than 100,000 CFU/mL))"}, {"measurement": "Grade", "setting": "[2]; 0.5% (wt/vol), 30 day", "value": "5 (More than 10,000 colonies estimated (thus more than 100,000 CFU/mL))"}, {"measurement": "Grade", "setting": "[2]; 1.25% (wt/vol), 3 day", "value": "5 (More than 10,000 colonies estimated (thus more than 100,000 CFU/mL))"}, {"measurement": "Grade", "setting": "[2]; 1.25% (wt/vol), 14 day", "value": "4 (1000 to 10,000 colonies countable (thus 10,000 CFU/mL to 100,000 CFU/mL))"}, {"measurement": "Grade", "setting": "[2]; 1.25% (wt/vol), 30 day", "value": "4 (1000 to 10,000 colonies countable (thus 10,000 CFU/mL to 100,000 CFU/mL))"}, {"measurement": "Grade", "setting": "[2]; 2.5% (wt/vol), 3 day", "value": "5 (More than 10,000 colonies estimated (thus more than 100,000 CFU/mL))"}, {"measurement": "Grade", "setting": "[2]; 2.5% (wt/vol), 14 day", "value": "4 (1000 to 10,000 colonies countable (thus 10,000 CFU/mL to 100,000 CFU/mL))"}, {"measurement": "Grade", "setting": "[2]; 2.5% (wt/vol), 30 day", "value": "4 (1000 to 10,000 colonies countable (thus 10,000 CFU/mL to 100,000 CFU/mL))"}, {"measurement": "Grade", "setting": "[2]; 5.0% (wt/vol), 3 day", "value": "4 (1000 to 10,000 colonies countable (thus 10,000 CFU/mL to 100,000 CFU/mL))"}, {"measurement": "Grade", "setting": "[2]; 5.0% (wt/vol), 14 day", "value": "3 (100 to 1000 colonies (thus 1000 to 10,000 CFU/mL))"}, {"measurement": "Grade", "setting": "[2]; 5.0% (wt/vol), 30 day", "value": "4 (1000 to 10,000 colonies countable (thus 10,000 CFU/mL to 100,000 CFU/mL))"}, {"measurement": "Grade", "setting": "[3]; 0.5% (wt/vol), 3 day", "value": "5 (More than 10,000 colonies estimated (thus more than 100,000 CFU/mL))"}, {"measurement": "Grade", "setting": "[3]; 0.5% (wt/vol), 13 day", "value": "5 (More than 10,000 colonies estimated (thus more than 100,000 CFU/mL))"}, {"measurement": "Grade", "setting": "[3]; 0.5% (wt/vol), 30 day", "value": "5 (More than 10,000 colonies estimated (thus more than 100,000 CFU/mL))"}, {"measurement": "Grade", "setting": "[3]; 1.25% (wt/vol), 3 day", "value": "4 (1000 to 10,000 colonies countable (thus 10,000 CFU/mL to 100,000 CFU/mL))"}, {"measurement": "Grade", "setting": "[3]; 1.25% (wt/vol), 13 day", "value": "4 (1000 to 10,000 colonies countable (thus 10,000 CFU/mL to 100,000 CFU/mL))"}, {"measurement": "Grade", "setting": "[3]; 1.25% (wt/vol), 30 day", "value": "4 (1000 to 10,000 colonies countable (thus 10,000 CFU/mL to 100,000 CFU/mL))"}]}
